Consider one molecule from paper PMC12291913 (Antibiotics, 2025).

This experiment deals with M. avium clinical isolate Koav 20 (WT). Nature of the experiment: microbe, parasite or virus in culture. It counts as cell-based. The settings on record: Koav 20 (K 20), WT; for MIC: Mycobacterium avium.

Molecules are shown by their SMILES. Where “and” joins values, the source holds several entries; their conditions need not be identical. Equal values may be shown once. Read-outs that look alike come from different tables or passages of the source.

`Cc1c(N2CC(N(C)C)C2)c(F)cc2c(=O)c(C(=O)O)cn(-c3nc(N)c(F)cc3F)c12` [WQ-3810]: the “mean FICIm” value reads like this: (FQ with EMB) 0.66; (FQ with INH) 0.25. Moreover, the FICIm is 0.625 and 0.75 (FQ+EMB, single replicates); 0.25 (FQ+INH, single replicates). Also, under “checkerboard (with 1 µg/ml INH)”, the “MIC of FQ with INH” value was 0.0625 µg/mL. The “MIC of drug alone” value (checkerboard, single replicates) came to 0.5 µg/mL. The MIC worked out at 0.0312 µg/mL (checkerboard (with 1 µg/ml INH), read-out: MIC of FQ with INH) and 0.25 µg/mL (checkerboard, single replicates, read-out: MIC of drug alone).
